Assay results published in patent US20060211073A1, “Assay for B-Raf activity based on intrinsic MEK ATPase activity” (priority 2005, published 2006).

Biological target: T1, phosphoMEK (activated MEK-1) (Homo sapiens, UniProt Q02750)
T1 construct: purchased Upstate (Waltham, Mass.) #14-429, lot #26232U
Test: ATPase activity of commercially acquired phosphoMEK in the absence of B-Raf
Assay type: biochemical
Settings: data not shown

T1 sequence (Q02750 whole entry): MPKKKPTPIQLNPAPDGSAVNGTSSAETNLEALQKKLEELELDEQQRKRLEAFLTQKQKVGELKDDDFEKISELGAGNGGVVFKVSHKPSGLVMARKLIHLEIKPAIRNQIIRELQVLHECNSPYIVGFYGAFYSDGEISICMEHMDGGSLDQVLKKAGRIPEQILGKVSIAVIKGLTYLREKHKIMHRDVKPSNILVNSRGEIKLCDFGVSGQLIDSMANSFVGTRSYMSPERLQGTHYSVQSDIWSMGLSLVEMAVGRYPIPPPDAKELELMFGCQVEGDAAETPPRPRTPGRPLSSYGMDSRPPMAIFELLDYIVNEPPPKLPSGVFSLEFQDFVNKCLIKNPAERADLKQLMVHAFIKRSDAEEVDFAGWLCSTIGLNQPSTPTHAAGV

IC50: > 10 µM
SMILES: CN(C)CCOc1ccc(-c2nc(-c3ccncc3)c(-c3ccc4c(c3)CC/C4=N\O)[nH]2)cc1 [SB-590885]
